{
  "source": "patent US9835614B2",
  "about": "“Measurement of cell growth and drug susceptibility by resonant mass measurement” (Affinity Biosensors, LLC, priority 2013, dated 2017)",
  "test_system": "E. coli",
  "assay": "Resonant mass measurement of growth of E. coli cultures with antibiotics",
  "assay_type": "cell-based",
  "data": [
    {"compound": "CC1(C)S[C@@H]2[C@H](NC(=O)[C@H](N)c3ccccc3)C(=O)N2[C@H]1C(=O)O", "note": "[ampicillin]", "values": [
      {"measurement": "time development of mass and number of microbes in culture (FIG. 4)", "setting": "E. coli in nutrient broth containing 64 μg/ml, cultures measured cyclically via selection valve", "value": "grow robustly"},
      {"measurement": "microbe number concentration growth curve (number of microbes per ml, FIG. 5(a))", "setting": "E. coli, 64 μg/ml, concentration calculated in each time interval", "value": "begins at about one hour"},
      {"measurement": "diagnostic susceptibility of the E. coli strain", "setting": "at the measured concentration (64 μg/ml)", "value": "resistant"}
    ]}
  ]
}
